Reference: publication PMC7644710, “Structural insights into the mechanism of rhodopsin phosphodiesterase” (Nature Communications, 2020)

Experiments:
Rh-PDE wt (full-length) = target: T1, Rh-PDE wt (full-length) (Salpingoeca rosetta, UniProt F2TZN0); test: HPLC hydrolysis assay, HEK293T homogenate; assay type: biochemical; settings: 100 μM cGMP, dark or light (Y52 filter), 3 mM MgCl2, pH 6.5, room temperature
T1 construct: gene PTSG_02023; full-length, RHO 1D4 tag, ~75 kDa; human codon-optimised gene expressed in HEK293T; dimer

[1] = target: T2, Rh-PDE-TMD (SrRh-PDE transmembrane domain) (Salpingoeca rosetta, UniProt F2TZN0); test: X-ray crystallography, […] Å; assay type: binding; settings: covalent; Schiff base at Lys296 in TM7; LCP crystals, pH 5.0
T2 construct: gene PTSG_02023; rhodopsin / transmembrane domain (TM0-7), residues 33-316; C-terminal GFP-His8 cut by TEV; HEK293S GnTI-; dimer

[2] = target: the molecule itself; test: high-speed atomic force microscopy (HS-AFM); purified full-length Rh-PDE reconstituted in an asolectin lipid bilayer, on APTES-treated mica, buffer without detergent, room temperature, tapping mode
[3] = target: the molecule itself; test: SEC-MALS; SEC-MALLS, Superdex 200 Increase 10/300, 4 °C, 20 mM Tris-HCl pH 8.0, 150 mM NaCl, 0.01% LMNG; three-detector method

## Nc1nc2c(ncn2[C@@H]2O[C@@H]3COP(=O)(O)O[C@H]3[C@H]2O)c(=O)[nH]1 [cGMP]
Rh-PDE wt (full-length)
  HPLC hydrolysis assay, HEK293T homogenate: The wild-type Rh-PDE showed three and twofold light-induced productions of cAMP and cGMP, respectively

## CC1=C(/C=C/C(C)=C/C=C/C(C)=C/C=O)C(C)(C)CCC1 [all-trans retinal]
[1]
  X-ray crystallography, 2.6 Å: canonical rhodopsin-like topology with covalently linked retinal at Lys296 in TM7

B1: Full-length rhodopsin phosphodiesterase from Salpingoeca rosetta (enzyme, UniProt F2TZN0 1-704, looked up)
chain: MGRKNAANSSMLQEASMNNYSMTSAASGASSSGRGKRRAKTRNIAIASTKEVQWQGIFMIIVWLCVMGSLIFFANPEASRRVFAKFSHLQSFYGATSVAFAFATGLDILAYVNAVSDEKRVLSGILAYVDGVACISYLSMATLNLYFLVDSTQGNPVWLMRYAEWIITCPTLLYWCGLASRADRSSVSDIATADALLLAGGALSSILPSWPAFFVFAGSFATYIYVMLHMWGMFGKAMQPDFQPPPPLPRHALHLLRCEIVMSWSIFPLVEFLRRQGYIDFQVGEAMNCVADYAAKVGLAMIMVNCNLEQINALRVQQMHSALTGMLKVMRKTNLSSSRMAQLDGVDDDVKSWIMNEFSGSTDGKGGDDAKAQQRARGRKGHSAAMDAEKLAASSLFTWDFDALDKSDEDLTAVCVRVFQELHVIEQFNIDEKKLRKWLQKVRTQYNKNPFHNWRHAVMVLHTTYLLLTSVATEFITEVELLAMLIAALSHDLDHNGLTNAFHINSRSELALVYNDQSVLENHHSHLAFEILLEKGCNVVENLDEDEFKRLRAVIINCILNTDMATHHTKLSKMEEVNRLGGFINLAENNDQRLFVLAVLLHTADLHNPIKPFESNKRWSARLQKEFNNQVELEAKMNLPSLPFMRGNDEESLAKGEIGFINFVVKPWHQQLSQAFPKLDFLLDTIDANLAEWKAIAESYRQMH
notes: Rhodopsin phosphodiesterase (Rh-PDE) of Salpingoeca rosetta, full length; also called full-length Rh-PDE; Rh-PDE (full); source: purified as the TMD constructs (HEK293S GnTI- cells) but in DDM/CHS; reconstituted in an asolectin lipid bilayer; not shown: GFP-His8, C-terminal, cleaved
[2]
  stoichiometry N: 2

B2: Rhodopsin phosphodiesterase transmembrane domain (Rh-PDE–TMD, residues 33–316) (domain or fragment, Salpingoeca rosetta, UniProt F2TZN0 33-316, looked up)
chain: GRGKRRAKTRNIAIASTKEVQWQGIFMIIVWLCVMGSLIFFANPEASRRVFAKFSHLQSFYGATSVAFAFATGLDILAYVNAVSDEKRVLSGILAYVDGVACISYLSMATLNLYFLVDSTQGNPVWLMRYAEWIITCPTLLYWCGLASRADRSSVSDIATADALLLAGGALSSILPSWPAFFVFAGSFATYIYVMLHMWGMFGKAMQPDFQPPPPLPRHALHLLRCEIVMSWSIFPLVEFLRRQGYIDFQVGEAMNCVADYAAKVGLAMIMVNCNLEQINALRV
modifications: covalently linked retinal at Lys296
notes: Rhodopsin phosphodiesterase (Rh-PDE) of Salpingoeca rosetta, transmembrane domain, residues 33-316; gene synthesised with human codon optimisation; TEV site between the protein and the GFP-His8 tag; also called SrRh-PDE–TMD; source: HEK293S GnTI- cells (pEG BacMam), purified (TALON, TEV cleavage, SEC) in LMNG/CHS; not shown: GFP-His8, C-terminal, cleaved
[3]
  stoichiometry N: 2
